Laboratory results published in ChEMBL document CHEMBL1781876, “Design, synthesis and inhibition activity of a novel cyclic enediyne amino acid conjugates against MPtpA” (Bioorg Med Chem, 2011).

Molecular target: T1, Low molecular weight protein-tyrosine phosphatase A (Mycobacterium tuberculosis, UniProt P9WIA1)
T1 sequence (P9WIA1 whole entry): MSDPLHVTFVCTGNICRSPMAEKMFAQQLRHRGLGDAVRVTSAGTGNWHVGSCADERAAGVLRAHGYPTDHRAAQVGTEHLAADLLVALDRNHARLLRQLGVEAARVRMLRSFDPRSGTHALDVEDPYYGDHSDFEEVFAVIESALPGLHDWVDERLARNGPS
Assay: Non-competitive inhibition of Mycobacterium tuberculosis PTPA using p-nitrophenyl phosphate as substrate by Lineweaver-Burk plot analysis

O=C(O)C1CCCc2ccccc2CCCCNC1=O (racemic)
IC50: 236 µM | Ki: 101 µM

O=C(O)/C1=C/C#Cc2ccccc2C#CCCNC1=O
IC50: 110 µM | Ki: 22.5 µM
